PubChem BioAssay AID1259408 (Genetic Toxicology Data Bank (GENE-TOX), 2018)
Active and inactive are the calls of the source. No rule for the calls is given here.

Test system: GENE-TOX genotoxicity assays, various organisms and cells
Assay: GENE-TOX mutagenicity studies
Settings: for call: Assay Type: In vivo carcinogenicity studies
[1] = Species/Cell Type: Salmonella typhimurium (one or more of the five standard strains: TA98, TA100, TA1535, TA1537, and TA1538), Assay Type: Histidine reverse gene mutation, Ames assay, Assay Code: SAL+*, Activation: With metabolic activation, Evaluation Type: Evaluation A (Pre-1980)
[2] = Species/Cell Type: Nonhuman, Assay Code: CCG+, Evaluation Type: Evaluation A (Pre-1980)
[3] = Species/Cell Type: Human lymphocytes, Assay Type: Sister-chromatid exchange (SCE) in vitro, Assay Code: SCL+D, Dose Response: With dose response, Evaluation Type: Evaluation B (Post-1980)
[4] = Species/Cell Type: Human, Assay Type: Sister-chromatid exchange (SCE) in vitro, Assay Code: SC1+D, Dose Response: With dose response, Evaluation Type: Evaluation B (Post-1980)
[5] = Species/Cell Type: Nonhuman, Assay Type: Sister-chromatid exchange (SCE) in vitro, Assay Code: SC2+, Evaluation Type: Evaluation B (Post-1980)
[6] = Species/Cell Type: Salmonella typhimurium (one or more of the five standard strains: TA98, TA100, TA1535, TA1537, and TA1538), Assay Type: Histidine reverse gene mutation, Ames assay, Assay Code: SAL+, Evaluation Type: Evaluation A (Pre-1980)
[7] = Species/Cell Type: Salmonella typhimurium (one or more of the five standard strains: TA98, TA100, TA1535, TA1537, and TA1538), Assay Type: Histidine reverse gene mutation, Ames assay, Assay Code: SALT, Evaluation Type: Evaluation A (Pre-1980)
[8] = Species/Cell Type: Saccharomyces cerevisiae, Assay Type: Mitotic recombination or gene conversion, Assay Code: YEC-, Evaluation Type: Evaluation A (Pre-1980)
[9] = Species/Cell Type: Mammalian polychromatic erythrocytes, Assay Type: Micronucleus test, chromosome aberrations, Assay Code: MNTT, Evaluation Type: Evaluation B (Post-1980)
[10] = Species/Cell Type: Mouse, Sex: Male, Assay Type: Sperm morphology, Assay Code: SPI-, Evaluation Type: Evaluation A (Pre-1980)

With `O=S(=O)(O)c1ccc(O)c2ncccc12` the mutagenic call [1] was “active; positive”.
`O=C1C2(Cl)C3(Cl)C4(Cl)C(Cl)(Cl)C5(Cl)C3(Cl)C1(Cl)C5(Cl)C24Cl` (stereo not drawn) was tested, and the mutagenic call (Species/Cell Type: Human, Sex: Male, Assay Type: Sperm morphology, Assay Code: SPHT, Evaluation Type: Evaluation A (Pre-1980)) was “no conclusion” and the call [2] was “active; positive”.
In the case of `O=C(O)CN(CCN(CC(=O)O)CC(=O)O)CC(=O)O`, the mutagenic call (Species/Cell Type: Allium cepa, Assay Type: Chromosome aberrations, Assay Code: ALC+, Evaluation Type: Evaluation A (Pre-1980)) was “active; positive”, the mutagenic call (Species/Cell Type: Arabidopsis species, Assay Type: Gene mutation, Assay Code: ARM-, Evaluation Type: Evaluation A (Pre-1980)) was “inactive; negative” and the call (Species/Cell Type: Nonhuman, Assay Code: CCG-, Evaluation Type: Evaluation A (Pre-1980)) was “inactive; negative”. The mutagenic call (Species/Cell Type: Salmonella typhimurium (one or more of the five standard strains: TA98, TA100, TA1535, TA1537, and TA1538), Assay Type: Histidine reverse gene mutation, Ames assay, Assay Code: SAL-, Evaluation Type: Evaluation A (Pre-1980)) was “inactive; negative”.
`COc1cccc2c1C(=O)c1c(O)c3c(c(O)c1C2=O)C[C@@](O)(C(C)=O)C[C@@H]3O[C@H]1C[C@H](N)[C@H](O)[C@H](C)O1` was tested, and the mutagenic call (Species/Cell Type: Chinese hamster lung (V79) cells, Assay Type: Forward gene mutation at the HPRT or ouabain locus, Assay Code: V79+, Evaluation Type: Evaluation A (Pre-1980)) was “active; positive”, the mutagenic call (Species/Cell Type: Chinese hamster ovary (CHO) cells, Assay Type: Forward gene mutation at the HPRT locus, Assay Code: CHO+, Evaluation Type: Evaluation B (Post-1980)) was “active; positive” and the mutagenic call (Species/Cell Type: Glycine max (soybean), Assay Type: Gene mutation, Assay Code: GLMT, Evaluation Type: Evaluation A (Pre-1980)) was “no conclusion”. The mutagenic call (Species/Cell Type: Human cell culture, Assay Type: Chromosome aberrations in vitro, Assay Code: CYZ+D, Dose Response: With dose response, Evaluation Type: Evaluation A (Pre-1980)) was “active; positive”, the mutagenic call (Species/Cell Type: Human lymphocytes or leukocytes, Assay Type: Chromosome aberrations in vitro, Assay Code: CY7+, Evaluation Type: Evaluation A (Pre-1980)) was “active; positive” and the mutagenic call [3] was “active; positive”. For the same compound, the mutagenic call [4] was “active; positive”, the mutagenic call (Species/Cell Type: Nonhuman bone marrow, Assay Type: Chromosome aberrations, in vivo, Assay Code: CY#+, Evaluation Type: Evaluation A (Pre-1980)) was “active; positive” and the mutagenic call (Species/Cell Type: Nonhuman lymphocytes or leukocytes, Assay Type: Chromosome aberrations in vivo, Assay Code: CY%+, Evaluation Type: Evaluation A (Pre-1980)) was “active; positive”. The call [2] was “active; positive”, the mutagenic call [5] was “active; positive” and the mutagenic call (Species/Cell Type: Nonhuman, Assay Type: Sister-chromatid exchange (SCE) in vivo, Assay Code: SC3+D, Dose Response: With dose response, Evaluation Type: Evaluation B (Post-1980)) was “active; positive”. The mutagenic call [6] was “active; positive” and the mutagenic call (Species/Cell Type: Vicia faba, Assay Type: Chromosome aberrations, Assay Code: VIC+D, Dose Response: With dose response, Evaluation Type: Evaluation A (Pre-1980)) was “active; positive”.
With `CC1=CC(=C(c2ccc(N)cc2)c2ccc(N)cc2)C=CC1=N` the mutagenic call (Species/Cell Type: Bacillus subtilis (H17 vs M45), Assay Type: Rec-assay, spot test, DNA effects (bacterial DNA repair), Assay Code: REWT, Evaluation Type: Evaluation A (Pre-1980)) was “no conclusion”.
For `CC1C(C)N(N=O)C(C)C(C)N1N=O` (stereo not drawn), the mutagenic call [7] was “no conclusion”.
`Nc1ccc(-c2ccc(N)cc2Cl)c(Cl)c1` was tested, and the mutagenic call (Species/Cell Type: Human diploid fibroblasts, Assay Type: Unscheduled DNA synthesis (UDS) in vitro, DNA effects, Assay Code: UDH+*, Activation: With metabolic activation, Evaluation Type: Evaluation A (Pre-1980)) was “active; positive”.
`O=[N+]([O-])c1ccc(O/N=C/c2cc(Br)c(O)c(Br)c2)c([N+](=O)[O-])c1` was tested, and the mutagenic call [8] was “inactive; negative”.
With `COc1ccc2nc3cc(Cl)ccc3c(NCCCNCCCl)c2c1` the mutagenic call (Species/Cell Type: Chinese hamster ovary (CHO) cells, Assay Type: Forward gene mutation at the HPRT locus, Assay Code: CHO+D, Dose Response: With dose response, Evaluation Type: Evaluation A (Pre-1980)) was “active; positive”, the mutagenic call (Species/Cell Type: Human diploid fibroblasts, Assay Type: Unscheduled DNA synthesis (UDS) in vitro, DNA effects, Assay Code: UDH-, Evaluation Type: Evaluation A (Pre-1980)) was “inactive; negative” and the call (Species/Cell Type: Nonhuman, Assay Code: CCGT, Evaluation Type: Evaluation A (Pre-1980)) was “no conclusion”. For the same compound, the mutagenic call (Species/Cell Type: Saccharomyces cerevisiae, Assay Type: Forward and reverse gene mutation, mitotic recombination and gene conversion, host-mediated assay, Assay Code: HME+, Evaluation Type: Evaluation A (Pre-1980)) was “active; positive”, the mutagenic call (Species/Cell Type: Saccharomyces cerevisiae, Assay Type: Mitotic recombination or gene conversion, Assay Code: YEC+, Evaluation Type: Evaluation A (Pre-1980)) was “active; positive” and the mutagenic call [6] was “active; positive”.
For `CN(C)CCOc1ccc2c(c1)CC/C(=C\c1ncc([N+](=O)[O-])n1C)C2=O`, the mutagenic call (Species/Cell Type: Neurospora crassa, Assay Type: Forward gene mutation, Assay Code: NEF+, Evaluation Type: Evaluation A (Pre-1980)) was “active; positive” and the mutagenic call (Species/Cell Type: Neurospora crassa, Assay Type: Reverse gene mutation, Assay Code: NER+, Evaluation Type: Evaluation A (Pre-1980)) was “active; positive”.
For `Oc1ccccc1`, the mutagenic call (Species/Cell Type: Human lymphocytes, Assay Type: Sister-chromatid exchange (SCE) in vitro, Assay Code: SCL+, Evaluation Type: Evaluation B (Post-1980)) was “active; positive”, the mutagenic call (Species/Cell Type: Human, Assay Type: Sister-chromatid exchange (SCE) in vitro, Assay Code: SC1+, Evaluation Type: Evaluation B (Post-1980)) was “active; positive” and the mutagenic call [9] was “no conclusion”. For the same compound, the mutagenic call (Species/Cell Type: Neurospora crassa, Assay Type: Reverse gene mutation, Assay Code: NER-, Evaluation Type: Evaluation A (Pre-1980)) was “inactive; negative”.
With `O=NN1CCC(Br)C(Br)C1` (stereo not drawn) the mutagenic call (Species/Cell Type: Drosophila melanogaster, Assay Type: Sex-linked recessive lethal gene mutation, Assay Code: SRL+, Evaluation Type: Evaluation A (Pre-1980)) was “active; positive” and the mutagenic call [6] was “active; positive”.
For `CC(=O)OC(OC(C)=O)c1ccc([N+](=O)[O-])o1`, the mutagenic call (Species/Cell Type: Escherichia coli WP2 UVRA, Assay Type: Tryptophan reverse gene mutation, Assay Code: WPU+, Evaluation Type: Evaluation A (Pre-1980)) was “active; positive”, the mutagenic call [5] was “active; positive” and the mutagenic call [6] was “active; positive”.
`CC(C)NCC(O)COc1ccc(CC(N)=O)cc1` (stereo not drawn) was tested, and the mutagenic call [9] was “no conclusion”.
`CC(N)=S=O` was tested, and the mutagenic call (Species/Cell Type: Mammalian polychromatic erythrocytes, Assay Type: Micronucleus test, chromosome aberrations, Assay Code: MNT+U, Dose Response: Unconfirmed positive response, Evaluation Type: Evaluation B (Post-1980)) was “active; positive”.
With `Cn1ccc(CO)c1CO` the mutagenic call [3] was “active; positive”.
`CC[C@]1(O)CC[C@H]2[C@@H]3CCC4=CC(=O)CC[C@@H]4[C@H]3CC[C@@]21C` was tested, and the mutagenic call (Species/Cell Type: Human, Sex: Male, Assay Type: Sperm morphology, Assay Code: SPH+, Evaluation Type: Evaluation A (Pre-1980)) was “active; positive”.
In the case of `Cc1cc2c3ccccc3ccc2c2ccccc12`, the mutagenic call [1] was “active; positive”.
`CCc1ccc(O)cc1` was tested, and the mutagenic call (Species/Cell Type: Human lymphocytes, Assay Type: Sister-chromatid exchange (SCE) in vitro, Assay Code: SCLT, Evaluation Type: Evaluation B (Post-1980)) was “no conclusion” and the mutagenic call (Species/Cell Type: Human, Assay Type: Sister-chromatid exchange (SCE) in vitro, Assay Code: SC1T, Evaluation Type: Evaluation B (Post-1980)) was “no conclusion”.
`Nc1ccc2[nH]ncc2c1` was tested, and the mutagenic call (Species/Cell Type: Rat, Sex: Male, Assay Type: Sperm morphology, Assay Code: SPA+, Evaluation Type: Evaluation A (Pre-1980)) was “active; positive”.
For `[CH3][Hg][O]C(C)=O`, the mutagenic call (Species/Cell Type: Mammalian polychromatic erythrocytes, Assay Type: Micronucleus test, chromosome aberrations, Assay Code: MNTT, Evaluation Type: Evaluation A (Pre-1980)) was “no conclusion” and the mutagenic call [10] was “inactive; negative”.
For `COc1cc(/C=C/C(=O)CC(=O)/C=C/c2ccc(O)c(OC)c2)ccc1O`, the mutagenic call [8] was “inactive; negative”.
For `CCCN(CCCCO)N=O`, the mutagenic call [1] was “active; positive”.
For `CC(C)CI`, the mutagenic call (Species/Cell Type: Escherichia coli polA (W3119 vs P3478), Assay Type: Rec-assay, DNA effects (bacterial DNA repair), Assay Code: RE1T, Evaluation Type: Evaluation A (Pre-1980)) was “no conclusion”.
With `Nc1nccc2c1[nH]c1ccccc12` the mutagenic call [4] was “active; positive” and the mutagenic call (Species/Cell Type: Nonhuman, Assay Type: Sister-chromatid exchange (SCE) in vitro, Assay Code: SC2T, Evaluation Type: Evaluation B (Post-1980)) was “no conclusion”.
`Nc1ccc(S)cc1` was tested, and the mutagenic call [10] was “inactive; negative”.
For `COc1cc(C(=O)CCN2CCCC2)ccc1O`, the mutagenic call (Species/Cell Type: Salmonella typhimurium, Assay Type: Forward and reverse gene mutation, host-mediated assay, Assay Code: HMAT, Evaluation Type: Evaluation A (Pre-1980)) was “no conclusion”.
For `CC1=C(O)C(=O)C(C2=C(O)C(=O)C(C)=C(O)C2=O)=C(O)C1=O`, the mutagenic call (Species/Cell Type: Saccharomyces cerevisiae, Assay Type: Mitotic recombination or gene conversion, Assay Code: YEH-, Evaluation Type: Evaluation A (Pre-1980)) was “inactive; negative” and the mutagenic call [7] was “no conclusion”.
`CCCCN(CCCO)N=O` was tested, and the mutagenic call [6] was “active; positive”.
In the case of `Clc1ccccc1`, the mutagenic call (Species/Cell Type: Mammalian polychromatic erythrocytes, Assay Type: Micronucleus test, chromosome aberrations, Assay Code: MNT+, Evaluation Type: Evaluation B (Post-1980)) was “active; positive”.
